Results published in PMC7377239, “Cardiovascular Effects of Polychlorinated Biphenyls and Their Major Metabolites” (Environmental Health Perspectives, 2020).
Read-outs that look alike come from different tables or passages of the source.

Legend:
[1] = test system: iCell endothelial cells (human iPSC-derived ECs); assay: Tube formation (tubulogenesis) assay in iCell endothelial cells, 18 h; format: cell-based; settings: Homo sapiens, Endothelial cell, iPSC-EC tube formation, 18 hr; for activity at 0.1 µM: 0.10 µM; for minimal effective concentration: top concentration 100.00 µM
How it was run: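 Tube formation was measured by calcein AM imaging after overnight compound exposure (37°C, 0.5% DMSO vehicle) of human iPSC-derived ECs, 7,500/well, on reduced-growth-factor Geltrex in starvation medium. Vehicle-normalized data fitted to four-parameter logistic; POD set at one vehicle SD; without response, 100 μM taken as NOAEL.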

HUVECs = assay: Tube formation (tubulogenesis) assay in HUVECs, 18 h; format: cell-based, human; settings: Homo sapiens, HUVEC, 18 h, HUVECs; for activity at 0.1 µM: 0.10 µM; for minimal effective concentration: top concentration 100.00 µM
How it was run: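 HUVECs (passage 1–5) seeded on reduced-growth-factor basement membrane and exposed to compounds overnight at 37°C, 5% CO2, in 2× maintenance medium with 12.5 ng/mL VEGF; 0.5% DMSO vehicle. Calcein AM-stained tube networks imaged and analysed; vehicle-normalized readouts fit to four-parameter logistic, POD set at one SD of vehicle means.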

[2] = 0.00 µM control = 100.00, read-out: endo.mtl.18hr
[3] = 0.00 µM control = 100.00, read-out: endo.tlps.18hr
[4] = 0.00 µM control = 100.00, read-out: endo.tta.18hr
[5] = 0.00 µM control = 100.00, read-out: endo.ttl.18hr
[6] = 0.00 µM = 100.00, read-out: huvec.mtl.18hr
[7] = 0.00 µM = 100.00, read-out: huvec.tlps.18hr
[8] = 0.00 µM = 100.00, read-out: huvec.tta.18hr
[9] = 0.00 µM = 100.00, read-out: huvec.ttl.18hr

## Oc1ccc(-c2cccc(Cl)c2)cc1Cl [4-OH PCB11]
[1]; [2]
  activity at 0.01 µM: 108%
  activity at 0.1 µM: 111%
  activity at 1 µM: 106%
  activity at 10 µM: 95.5%
  activity at 100 µM: 52.6%
[1]; [3]
  activity at 0.01 µM: 105%
  activity at 0.1 µM: 99.3%
  activity at 1 µM: 114%
  activity at 10 µM: 119%
  activity at 100 µM: 14.8%
[1]; [4]
  activity at 0.01 µM: 164%
  activity at 0.1 µM: 131%
  activity at 1 µM: 144%
  activity at 10 µM: 87.6%
  activity at 100 µM: 9.99%
[1]; [5]
  activity at 0.01 µM: 164%
  activity at 0.1 µM: 135%
  activity at 1 µM: 144%
  activity at 10 µM: 85.5%
  activity at 100 µM: 11.5%
[1]; read-out: endo.mtl.18hr POD
  minimal effective concentration: 17.7 µM
[1]; read-out: endo.tlps.18hr POD
  minimal effective concentration: 52.5 µM
[1]; read-out: endo.tta.18hr POD
  minimal effective concentration: 15.8 µM
[1]; read-out: endo.ttl.18hr POD
  minimal effective concentration: 16.1 µM
HUVECs; [6]
  activity at 0.01 µM: 113%
  activity at 0.1 µM: 115%
  activity at 1 µM: 112%
  activity at 10 µM: 77.3%
  activity at 100 µM: 62.9%
HUVECs; [7]
  activity at 0.01 µM: 135%
  activity at 0.1 µM: 127%
  activity at 1 µM: 149%
  activity at 10 µM: 94.8%
  activity at 100 µM: 61.6%
HUVECs; [8]
  activity at 0.01 µM: 121%
  activity at 0.1 µM: 133%
  activity at 1 µM: 110%
  activity at 10 µM: 89.2%
  activity at 100 µM: 84.3%
HUVECs; [9]
  activity at 0.01 µM: 115%
  activity at 0.1 µM: 125%
  activity at 1 µM: 107%
  activity at 10 µM: 81.5%
  activity at 100 µM: 85.2%
HUVECs; read-out: huvec.mtl.18hr POD
  minimal effective concentration: 7.09 µM
HUVECs; read-out: huvec.tlps.18hr POD
  minimal effective concentration: 35.3 µM
HUVECs; read-out: huvec.tta.18hr POD
  minimal effective concentration: 100 µM
HUVECs; read-out: huvec.ttl.18hr POD
  minimal effective concentration: 4.15 µM

## Oc1cc(Cl)c(-c2cc(Cl)ccc2Cl)cc1Cl [4-OH PCB52]
[1]; [2]
  activity at 0.01 µM: 114%
  activity at 0.1 µM: 119%
  activity at 1 µM: 111%
  activity at 10 µM: 84.5%
  activity at 100 µM: 0%
[1]; [3]
  activity at 0.01 µM: 107%
  activity at 0.1 µM: 109%
  activity at 1 µM: 129%
  activity at 10 µM: 70.9%
  activity at 100 µM: 0%
[1]; [4]
  activity at 0.01 µM: 144%
  activity at 0.1 µM: 116%
  activity at 1 µM: 118%
  activity at 10 µM: 86%
  activity at 100 µM: 0%
[1]; [5]
  activity at 0.01 µM: 144%
  activity at 0.1 µM: 125%
  activity at 1 µM: 124%
  activity at 10 µM: 85.7%
  activity at 100 µM: 0%
[1]; read-out: endo.mtl.18hr POD
  minimal effective concentration: 9.52 µM
[1]; read-out: endo.tlps.18hr POD
  minimal effective concentration: 8.32 µM
[1]; read-out: endo.tta.18hr POD
  minimal effective concentration: 15 µM
[1]; read-out: endo.ttl.18hr POD
  minimal effective concentration: 15.2 µM
HUVECs; [6]
  activity at 0.01 µM: 112%
  activity at 0.1 µM: 98.5%
  activity at 1 µM: 94%
  activity at 10 µM: 91.1%
  activity at 100 µM: 69.6%
HUVECs; [7]
  activity at 0.01 µM: 103%
  activity at 0.1 µM: 96.7%
  activity at 1 µM: 92.4%
  activity at 10 µM: 77.1%
  activity at 100 µM: 35.6%
HUVECs; [8]
  activity at 0.01 µM: 129%
  activity at 0.1 µM: 107%
  activity at 1 µM: 123%
  activity at 10 µM: 98.5%
  activity at 100 µM: 168%
HUVECs; [9]
  activity at 0.01 µM: 112%
  activity at 0.1 µM: 98.2%
  activity at 1 µM: 110%
  activity at 10 µM: 87.2%
  activity at 100 µM: 163%
HUVECs; read-out: huvec.mtl.18hr POD
  minimal effective concentration: 8.34 µM
HUVECs; read-out: huvec.tlps.18hr POD
  minimal effective concentration: 4.13 µM
HUVECs; read-out: huvec.tta.18hr POD
  minimal effective concentration: 51.8 µM
HUVECs; read-out: huvec.ttl.18hr POD
  minimal effective concentration: 62.1 µM
